One test addresses Rho kinase 1 (Homo sapiens, UniProt Q13464). The test can be described thus: In vitro Rho kinase inhibitory activity assay (ADP-Glo kit, Myelin Basic Protein substrate). Type of test: biochemical. As to conditions: 10 μM ATP, 25° C., read-out: ROCK1 inhibitory activity (Ki, range of activity). The essentials:
(§1)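 Kinase activity is measured as ADP production (ADP-Glo, luminescence) after 1 hour at 25 °C with 10 μM ATP and 2.5 μM Myelin Basic Protein, following 30 min enzyme–compound preincubation. Buffer is 40 mM Tris pH7.5, 20 mM MgCl2, 0.1 mg/ml BSA, 50 μM DTT.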
In general terms: In ADP-Glo the light output rises with the ADP produced.

Another test has as its target Rho kinase 2 (Homo sapiens, UniProt O75116). Described as above. Type of test: biochemical. As to conditions: 10 μM ATP, 25° C., read-out: ROCK2 inhibitory activity (Ki, range of activity). The essentials:
as §1

Chain of Rho kinase 1 (Q13464 whole entry): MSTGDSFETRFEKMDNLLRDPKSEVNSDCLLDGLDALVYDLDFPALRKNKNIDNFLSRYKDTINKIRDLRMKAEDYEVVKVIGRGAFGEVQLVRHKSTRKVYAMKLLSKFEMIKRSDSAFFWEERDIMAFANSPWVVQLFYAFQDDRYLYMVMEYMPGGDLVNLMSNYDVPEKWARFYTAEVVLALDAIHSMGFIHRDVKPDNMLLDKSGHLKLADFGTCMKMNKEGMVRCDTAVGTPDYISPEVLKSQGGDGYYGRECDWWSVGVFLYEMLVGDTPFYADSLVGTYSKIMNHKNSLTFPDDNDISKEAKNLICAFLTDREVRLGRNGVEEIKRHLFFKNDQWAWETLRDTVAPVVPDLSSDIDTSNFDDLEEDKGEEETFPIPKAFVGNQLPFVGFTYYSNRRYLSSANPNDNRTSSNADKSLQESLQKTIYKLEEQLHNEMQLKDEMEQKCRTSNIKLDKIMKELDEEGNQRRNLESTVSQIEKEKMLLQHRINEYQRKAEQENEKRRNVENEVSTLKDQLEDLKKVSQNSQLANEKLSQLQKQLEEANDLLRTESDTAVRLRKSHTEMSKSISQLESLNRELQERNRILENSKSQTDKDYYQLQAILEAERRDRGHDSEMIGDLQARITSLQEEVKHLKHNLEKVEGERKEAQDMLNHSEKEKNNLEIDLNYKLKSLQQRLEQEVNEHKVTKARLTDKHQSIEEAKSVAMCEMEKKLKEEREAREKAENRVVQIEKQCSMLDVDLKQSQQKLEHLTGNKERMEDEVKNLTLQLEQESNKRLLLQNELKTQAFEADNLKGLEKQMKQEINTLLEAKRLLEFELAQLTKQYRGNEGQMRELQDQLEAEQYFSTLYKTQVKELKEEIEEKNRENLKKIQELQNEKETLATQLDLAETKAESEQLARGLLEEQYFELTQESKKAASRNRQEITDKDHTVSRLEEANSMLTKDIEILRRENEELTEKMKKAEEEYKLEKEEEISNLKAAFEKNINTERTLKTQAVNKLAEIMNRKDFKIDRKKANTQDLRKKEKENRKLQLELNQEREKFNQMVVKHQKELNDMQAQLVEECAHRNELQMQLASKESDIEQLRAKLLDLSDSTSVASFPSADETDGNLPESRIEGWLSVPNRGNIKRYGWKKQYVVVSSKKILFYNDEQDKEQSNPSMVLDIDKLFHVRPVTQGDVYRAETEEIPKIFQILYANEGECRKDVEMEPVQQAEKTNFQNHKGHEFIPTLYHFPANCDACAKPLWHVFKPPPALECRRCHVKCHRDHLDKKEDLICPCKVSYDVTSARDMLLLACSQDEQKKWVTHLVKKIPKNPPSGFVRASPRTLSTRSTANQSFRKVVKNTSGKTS
Chain of Rho kinase 2 (O75116 whole entry): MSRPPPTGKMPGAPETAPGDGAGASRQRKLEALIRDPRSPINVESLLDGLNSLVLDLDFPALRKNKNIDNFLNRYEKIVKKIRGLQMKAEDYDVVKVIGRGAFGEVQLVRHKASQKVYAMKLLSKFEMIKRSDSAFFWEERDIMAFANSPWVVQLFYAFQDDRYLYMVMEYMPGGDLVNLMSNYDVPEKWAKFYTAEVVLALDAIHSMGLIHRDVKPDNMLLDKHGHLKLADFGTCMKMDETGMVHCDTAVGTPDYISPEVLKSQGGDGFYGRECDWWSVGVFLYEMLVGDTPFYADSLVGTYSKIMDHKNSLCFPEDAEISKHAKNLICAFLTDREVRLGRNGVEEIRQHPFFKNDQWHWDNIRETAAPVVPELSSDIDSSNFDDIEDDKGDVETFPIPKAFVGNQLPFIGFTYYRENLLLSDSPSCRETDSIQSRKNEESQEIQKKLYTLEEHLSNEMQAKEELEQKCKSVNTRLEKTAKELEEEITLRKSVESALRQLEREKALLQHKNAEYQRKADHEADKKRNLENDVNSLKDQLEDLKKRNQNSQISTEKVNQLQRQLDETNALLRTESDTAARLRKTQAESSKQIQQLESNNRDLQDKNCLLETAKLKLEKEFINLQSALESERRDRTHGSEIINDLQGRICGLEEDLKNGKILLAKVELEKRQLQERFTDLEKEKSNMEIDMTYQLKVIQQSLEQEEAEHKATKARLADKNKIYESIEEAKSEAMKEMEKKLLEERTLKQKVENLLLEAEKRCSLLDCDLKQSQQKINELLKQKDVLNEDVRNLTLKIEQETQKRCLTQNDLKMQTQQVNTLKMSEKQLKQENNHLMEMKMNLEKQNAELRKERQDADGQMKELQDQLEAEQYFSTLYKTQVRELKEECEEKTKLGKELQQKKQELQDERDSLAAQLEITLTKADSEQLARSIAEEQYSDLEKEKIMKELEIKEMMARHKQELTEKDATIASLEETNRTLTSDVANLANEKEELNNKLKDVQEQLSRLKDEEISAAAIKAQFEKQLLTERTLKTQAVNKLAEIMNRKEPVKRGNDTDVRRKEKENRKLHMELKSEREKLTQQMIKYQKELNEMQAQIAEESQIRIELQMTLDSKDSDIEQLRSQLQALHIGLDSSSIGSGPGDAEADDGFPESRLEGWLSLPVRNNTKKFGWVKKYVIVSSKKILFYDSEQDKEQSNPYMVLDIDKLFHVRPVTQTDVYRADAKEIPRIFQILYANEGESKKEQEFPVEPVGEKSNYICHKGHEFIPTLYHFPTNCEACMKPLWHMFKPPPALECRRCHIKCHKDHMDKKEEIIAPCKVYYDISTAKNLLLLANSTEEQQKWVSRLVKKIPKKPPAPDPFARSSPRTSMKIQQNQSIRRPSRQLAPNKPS

As for `CC1=C(C(=O)Nc2ccc3[nH]ncc3c2)C(c2ccc(C(F)(F)F)cc2)n2nc(CO)cc2N1` (single isomer, unassigned) [Example 69A, 2-(hydroxymethyl)-N-(1H-indazol-5-yl)-5-methyl-7-(4-(trifluoromethyl)phenyl)-4,7-dihydropyrazolo[1,5-a]pyrimidine-6-carboxamide], the Ki on Rho kinase 1 and on Rho kinase 2 was 50 to 500 nM in each case.
In the case of `CC1=C(C(=O)Nc2cc3cn[nH]c3cc2F)C(c2ccc(Cl)nc2)n2nc(C(F)(F)F)cc2N1` (centres unmarked) [Example 39, 7-(6-chloropyridin-3-yl)-N-(6-fluoro-1H-indazol-5-yl)-5-methyl-2-(trifluoromethyl)-4,7-dihydropyrazolo[1,5-a]pyrimidine-6-carboxamide], the Ki at Rho kinase 1 and on Rho kinase 2 was less than 50 nM in each case.
Consider `CCOC(=O)c1cc2n(n1)C(c1cccc(OC)c1)C(C(=O)Nc1ccc3[nH]ncc3c1)=C(C)N2` (centres unmarked) [Example 6, ethyl 6-((1H-indazol-5-yl)carbamoyl)-7-(3-methoxyphenyl)-5-methyl-4,7-dihydropyrazolo[1,5-a]pyrimidine-2-carboxylate], for which the Ki at Rho kinase 1 and on Rho kinase 2 was 50 to 500 nM each time.
As for `COCc1cc2n(n1)C(c1ccc(C(F)(F)F)c(F)c1)C(C(=O)Nc1ccc3cnccc3c1)=C(C)N2` (centres unmarked) [Example 36, 7-(3-fluoro-4-(trifluoromethyl)phenyl)-N-(isoquinolin-6-yl)-2-(methoxymethyl)-5-methyl-4,7-dihydropyrazolo[1,5-a]pyrimidine-6-carboxamide], the Ki at Rho kinase 1 and on Rho kinase 2 was less than 50 nM throughout.
Regarding `CC1=C(C(=O)Nc2ccc3[nH]ncc3c2)C(c2ccc(F)cc2)n2ncc(Br)c2N1` (centres unmarked) [Example 22, 3-bromo-7-(4-fluorophenyl)-N-(1H-indazol-5-yl)-5-methyl-4,7-dihydropyrazolo[1,5-a]pyrimidine-6-carboxamide], the Ki on Rho kinase 1 and on Rho kinase 2 was less than 50 nM in each case.
As for `CC1=C(C(=O)Nc2ccc3[nH]ncc3c2)C(c2ccc(F)cc2)n2ncc(C#N)c2N1` (centres unmarked) [Example 18, 3-cyano-7-(4-fluorophenyl)-N-(1H-indazol-5-yl)-5-methyl-4,7-dihydropyrazolo[1,5-a]pyrimidine-6-carboxamide], the Ki at Rho kinase 1 and on Rho kinase 2 was less than 50 nM throughout.
Take `CC1=C(C(=O)Nc2ccc3cnccc3c2)C(C2CCC(C(F)(F)F)CC2)n2nc(CN(C)C)cc2N1` (centres unmarked) [Example 120, 2-((dimethylamino)methyl)-N-(isoquinolin-6-yl)-5-methyl-7-(4-(trifluoromethyl)cyclohexyl)-4,7-dihydropyrazolo[1,5-a]pyrimidine-6-carboxamide]: the Ki on Rho kinase 1 and on Rho kinase 2 was less than 50 nM in each case.
Consider `CC1=C(C(=O)Nc2ccc3cnccc3c2)C(c2ccc(C(F)(F)F)c(F)c2)n2nc(CN3CCC(N4CCCC4)CC3)cc2N1` (centres unmarked) [Example 105, 7-(3-fluoro-4-(trifluoromethyl)phenyl)-N-(isoquinolin-6-yl)-5-methyl-2-((4-(pyrrolidin-1-yl)piperidin-1-yl)methyl)-4,7-dihydropyrazolo[1,5-a]pyrimidine-6-carboxamide], for which the Ki at Rho kinase 1 and at Rho kinase 2 was less than 50 nM throughout.
In the case of `CCOC(=O)c1cc2n(n1)C(C1CCCCC1)C(C(=O)Nc1ccc3[nH]ncc3c1)=C(C)N2` (centres unmarked) [Example 14, ethyl 6-((1H-indazol-5-yl)carbamoyl)-7-cyclohexyl-5-methyl-4,7-dihydropyrazolo[1,5-a]pyrimidine-2-carboxylate], the figures for the Ki on Rho kinase 1 and on Rho kinase 2 were 50 to 500 nM and less than 50 nM, respectively.
The corresponding values for `CC1=C(C(=O)Nc2ccc3cnccc3c2)C(c2ccc3cc[nH]c3c2)n2nc(CO)cc2N1` (centres unmarked) [Example 63, 2-(hydroxymethyl)-7-(1H-indol-6-yl)-N-(isoquinolin-6-yl)-5-methyl-4,7-dihydropyrazolo[1,5-a]pyrimidine-6-carboxamide] are less than 50 nM and less than 50 nM.
Consider `CC1=C(C(=O)Nc2ccc3cnccc3c2)C(c2ccc(C(F)(F)F)c(F)c2)n2nc(C(=O)NCCN(C)C)cc2N1` (centres unmarked) [Example 79, N2-(2-(dimethylamino)ethyl)-7-(3-fluoro-4-(trifluoromethyl)phenyl)-N6-(isoquinolin-6-yl)-5-methyl-4,7-dihydropyrazolo[1,5-a]pyrimidine-2,6-dicarboxamide], for which the Ki at Rho kinase 1 and on Rho kinase 2 was less than 50 nM throughout.
For the compound `CC1=C(C(=O)Nc2ccc3cnccc3c2)C(c2ccc(C(F)(F)F)c(F)c2)n2nc(NC(=O)CN3CCCC3)cc2N1` (single isomer, unassigned) [132A], the Ki on Rho kinase 1 and on Rho kinase 2 was less than 50 nM in each case.
Take `CC1=C(C(=O)Nc2ccc3[nH]ncc3c2)C(c2ccc(F)cc2)n2nc(CO)cc2N1` (single isomer, unassigned) [Example 71A, 7-(4-fluorophenyl)-2-(hydroxymethyl)-N-(1H-indazol-5-yl)-5-methyl-4,7-dihydropyrazolo[1,5-a]pyrimidine-6-carboxamide]: the Ki on Rho kinase 1 and at Rho kinase 2 was less than 50 nM throughout.
Turning to `CC1=C(C(=O)Nc2ccc3cnccc3c2)C(c2ccc(C(F)(F)F)c(F)c2)n2nc(N)cc2N1` (centres unmarked) [Example 130, 2-Amino-7-(3-fluoro-4-(trifluoromethyl)phenyl)-N-(isoquinolin-6-yl)-5-methyl-4,7-dihydropyrazolo[1,5-a]pyrimidine-6-carboxamide], the Ki on Rho kinase 1 and on Rho kinase 2 was less than 50 nM in each case.
For the compound `CC1=C(C(=O)Nc2ccc3cnccc3c2)C(c2ccc(C(F)(F)F)cc2)n2nc(CO)cc2N1` (single isomer, unassigned) [Example 43B, 2-(hydroxymethyl)-N-(isoquinolin-6-yl)-5-methyl-7-(4-(trifluoromethyl)phenyl)-4,7-dihydropyrazolo[1,5-a]pyrimidine-6-carboxamide], the Ki at Rho kinase 1 and on Rho kinase 2 was less than 50 nM throughout.
In the case of `CC1=C(C(=O)Nc2ccc3[nH]ncc3c2)C(c2ccc(C(F)(F)F)cc2)n2nc(CN)cc2N1` (centres unmarked) [Example 111, 2-(aminomethyl)-N-(1H-indazol-5-yl)-5-methyl-7-(4-(trifluoromethyl)phenyl)-4,7-dihydropyrazolo[1,5-a]pyrimidine-6-carboxamide], the Ki at Rho kinase 1 and on Rho kinase 2 was less than 50 nM in each case.
In the case of `CC1=C(C(=O)Nc2ccc3cnccc3c2)C(c2cccc(C(F)(F)F)c2)n2nc(CO)cc2N1` (centres unmarked) [Example 51, 2-(hydroxymethyl)-N-(isoquinolin-6-yl)-5-methyl-7-(3-(trifluoromethyl)phenyl)-4,7-dihydropyrazolo[1,5-a]pyrimidine-6-carboxamide], the Ki on Rho kinase 1 and on Rho kinase 2 was less than 50 nM in each case.
As for `CC1=C(C(=O)Nc2ccc3cnccc3c2)C(c2ccc(C(F)(F)F)c(F)c2)n2nc(CN3CCCCC3)cc2N1` (single isomer, unassigned) [Example 97B, 7-(3-fluoro-4-(trifluoromethyl)phenyl)-N-(isoquinolin-6-yl)-5-methyl-2-(piperidin-1-ylmethyl)-4,7-dihydropyrazolo[1,5-a]pyrimidine-6-carboxamide], the Ki on Rho kinase 1 and on Rho kinase 2 was less than 50 nM in each case.
With `CC1=C(C(=O)Nc2ccc3[nH]ncc3c2)C(c2ccc(C(F)(F)F)cc2)n2nnnc2N1` (single isomer, unassigned) [Example 27A, N-(1H-indazol-5-yl)-5-methyl-7-(4-(trifluoromethyl)phenyl)-4,7-dihydrotetrazolo[1,5-a]pyrimidine-6-carboxamide], the Ki on Rho kinase 1 and on Rho kinase 2 was less than 50 nM in each case.
For `CC1=C(C(=O)Nc2ccc3cnccc3c2)C(c2ccc(C(F)(F)F)c(F)c2)n2nc(C(=O)NCCN3CCCCC3)cc2N1` (single isomer, unassigned) [77A], the Ki on Rho kinase 1 and at Rho kinase 2 was more than 500 nM each time.
Take `CC1=C(C(=O)Nc2ccc3cnccc3c2)C(c2ccc(C(F)(F)F)c(F)c2)n2nc(C(=O)NCCN3CCN(C)CC3)cc2N1` (centres unmarked) [Example 81, 7-(3-fluoro-4-(trifluoromethyl)phenyl)-N6-(isoquinolin-6-yl)-5-methyl-N2-(2-(4-methylpiperazin-1-yl)ethyl)-4,7-dihydropyrazolo[1,5-a]pyrimidine-2,6-dicarboxamide]: the Ki on Rho kinase 1 and at Rho kinase 2 was less than 50 nM in each case.
In the case of `CC1=C(C(=O)Nc2ccc3cnccc3c2)C(c2ccc(C(F)(F)F)c(F)c2)n2nc(C(=O)NCCN3CCOCC3)cc2N1` (centres unmarked) [Example 82, 7-(3-fluoro-4-(trifluoromethyl)phenyl)-N6-(isoquinolin-6-yl)-5-methyl-N2-(2-morpholinoethyl)-4,7-dihydropyrazolo[1,5-a]pyrimidine-2,6-dicarboxamide], the Ki at Rho kinase 1 and at Rho kinase 2 was less than 50 nM in each case.
For `CC1=C(C(=O)Nc2ccc3[nH]ncc3c2)C(c2ccc(F)cc2)n2nc(Br)cc2N1` (centres unmarked) [Example 30, 2-bromo-7-(4-fluorophenyl)-N-(1H-indazol-5-yl)-5-methyl-4,7-dihydropyrazolo[1,5-a]pyrimidine-6-carboxamide], the Ki on Rho kinase 1 and at Rho kinase 2 was less than 50 nM throughout.
On to `CC1=C(C(=O)Nc2ccc3cnccc3c2)C(C2Cc3ccccc3C2)n2nc(CN(C)C)cc2N1` (centres unmarked) [Example 124, 7-(2,3-dihydro-1H-inden-2-yl)-2-((dimethylamino)methyl)-N-(isoquinolin-6-yl)-5-methyl-4,7-dihydropyrazolo[1,5-a]pyrimidine-6-carboxamide], for which the Ki on Rho kinase 1 and on Rho kinase 2 was less than 50 nM throughout.
In the case of `CC1=C(C(=O)Nc2ccc3cnccc3c2)C(c2ccc(C)c(F)c2F)n2nc(CN(C)C)cc2N1` (centres unmarked) [Example 121, 7-(2,3-difluoro-4-methylphenyl)-2-((dimethylamino)methyl)-N-(isoquinolin-6-yl)-5-methyl-4,7-dihydropyrazolo[1,5-a]pyrimidine-6-carboxamide], the Ki at Rho kinase 1 and on Rho kinase 2 was less than 50 nM each time.

The record behind these values is US10584128B2, “Bicyclic dihydropyrimidine-carboxamide derivatives as Rho-Kinase inhibitors” (CHIESI FARMACEUTICI S.p.A., priority 2016, dated 2020).
